According to patent US8211945B2, “Carba-sugar amine derivative and glycolipid metabolic disorder treating agent containing the same as active ingredient” (Seikagaku Corporation, priority 2001, dated 2012):
Where “and” joins values, the source holds several entries; their conditions need not be identical. Identical values can stand only once.

Target: T1, human mutant β-galactosidase R201C (Homo sapiens, UniProt P16278, R201C)
T1 construct: from tissue
T1 sequence (P16278 29-677 R201C): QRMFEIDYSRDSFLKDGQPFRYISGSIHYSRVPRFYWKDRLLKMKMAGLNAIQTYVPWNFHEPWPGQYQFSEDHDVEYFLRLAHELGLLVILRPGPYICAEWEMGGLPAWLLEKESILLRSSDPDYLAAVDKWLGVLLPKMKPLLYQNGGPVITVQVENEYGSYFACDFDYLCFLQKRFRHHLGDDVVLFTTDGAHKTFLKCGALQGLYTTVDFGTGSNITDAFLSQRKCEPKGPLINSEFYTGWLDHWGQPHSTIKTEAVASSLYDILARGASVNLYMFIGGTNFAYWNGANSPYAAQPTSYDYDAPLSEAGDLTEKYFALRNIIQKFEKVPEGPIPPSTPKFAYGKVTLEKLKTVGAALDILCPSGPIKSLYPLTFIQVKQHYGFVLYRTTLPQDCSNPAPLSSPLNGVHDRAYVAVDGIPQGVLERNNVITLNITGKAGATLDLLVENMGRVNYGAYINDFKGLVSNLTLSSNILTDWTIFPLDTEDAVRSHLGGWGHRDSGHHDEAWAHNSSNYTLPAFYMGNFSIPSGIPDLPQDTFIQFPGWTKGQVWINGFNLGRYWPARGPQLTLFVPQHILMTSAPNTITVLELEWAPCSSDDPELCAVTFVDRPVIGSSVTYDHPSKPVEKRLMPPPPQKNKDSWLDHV
Test: Tissue migration and recovery of β-galactosidase activity, 1 week oral administration to recombinant mice
Assay type: in vivo
Conditions: for β-galactosidase activity, Test group: mice, 1 mM in drinking water, 1 week
Experimental: One week thereafter, the mice were sacrificed to excise the cerebrum, the cerebellum, the heart, the lungs, the liver, the spleen, the kidney, a muscle (femoral muscle) and plasma. Also, tail tissues were used for the purpose of verifying changes in the β-galactosidase activity in the same individual before and after the administration. Each organ was crushed under ice-cooling using a homogenizer, and then the suspension of crushed cells was centrifuged at 8,000×g for 30 minutes. Thereafter, the supernatant fraction was recovered and used as an enzyme solution. The amount of protein in this enzyme solution was measured by the Bradford method, and the β-galactosidase activity was measured. With regard to the measurement of β-galactosidase activity, the enzyme activity during 30 minutes was measured at 37° C. using 4-methylumbelliferyl-β-D-galactopyranoside as the fluorogenic substrate. […] Three animals were used in each group to calculate the mean value.

CCCCCCCCN[C@@H]1C=C(CO)[C@H](O)C(O)[C@@H]1O (stereo partly drawn) [Substance 18, N-octyl-5a-carba-α-L-arabino-hexo-5(5a)-enopyranosylamine]
β-galactosidase activity, Test group (Cerebellum): 55.4 nmol/mg protein/30 minutes | Improving degree (Cerebellum, test group vs control): 5.3 Times | β-galactosidase activity, Test group (Cerebrum): 50.5 nmol/mg protein/30 minutes | Improving degree (Cerebrum, test group vs control): 6.0 Times | β-galactosidase activity, Test group (Heart): 241.2 nmol/mg protein/30 minutes | Improving degree (Heart, test group vs control): 14.2 Times | β-galactosidase activity, Test group (Kidney): 171.1 nmol/mg protein/30 minutes | Improving degree (Kidney, test group vs control): 6.2 Times | β-galactosidase activity, Test group (Liver): 186.8 nmol/mg protein/30 minutes | Improving degree (Liver, test group vs control): 4.7 Times | β-galactosidase activity, Test group (Lungs): 98.9 nmol/mg protein/30 minutes | Improving degree (Lungs, test group vs control): 12.4 Times | β-galactosidase activity, Test group (Muscle (femoral muscle)): 91.4 nmol/mg protein/30 minutes | Improving degree (Muscle (femoral muscle), test group vs control): 11.3 Times | β-galactosidase activity, Test group (Plasma): 23.0 nmol/mg protein/30 minutes | Improving degree (Plasma, test group vs control): 7.9 Times | β-galactosidase activity, Test group (Spleen): 266.2 nmol/mg protein/30 minutes | Improving degree (Spleen, test group vs control): 17.1 Times | β-galactosidase activity, After feeding (Tail (administered group), after 1 week feeding): 518.8 nmol/mg protein/30 minutes | Improving degree (Tail (administered group), after vs before feeding, same individual): ~8 Times and 6.7 Times | β-galactosidase activity improved in average in the test group (average of organs, test group vs control): 9.1 times | level of the activity obtained in the cerebrum and the cerebellum (cerebrum and cerebellum, test group): about 50 nmol/mg protein/30 minutes
